The values that follow come from patent publication US12486280B2, “CDK inhibitors and uses thereof” (California Institute of Technology, priority 2018, dated 2025).

In brackets after ≈: the same amount, converted by molar mass. Like-named read-outs stand apart in the source and are kept apart here.

The target in one data set is CDK4 (Homo sapiens (Human), UniProt P11802). In words: Cdk4 and 6 Enzymatic Inhibition Assay (radiometric 33PanQinase, Ki determination). The class given is biochemical. An outline of the steps: (§1)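 Radiometric 33PanQinase assay in 70 mM HEPES-NaOH pH 7.5 with 3 mM MgCl2, 3 mM MnCl2, [γ-33P]-ATP, kinase and substrate; 60 min at 30° C, 1% DMSO final. Ten final concentrations from 2×10^−6 M to 6×10^−11 M; 33Pi incorporation counted by scintillation after H3PO4 stop.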

Another data set concerns the target CDK6 (Homo sapiens (Human), UniProt Q00534). The description is as above. The class given is biochemical. An outline of the steps:
as §1

Data set [1] deals with drug-sensitive cell lines of Table 2 (EFM-19, MDA-MB-453, T-47D, ZR-75-1, NCI-H441, OVTOKO, NCI-H1838). The data set is described as follows: Cell Line Growth Retardation Assay, sensitive cohort. The class given is cell-based, human. The settings on record: for IC50: Homo sapiens, geometric mean over sensitive cohort, 6 days growth, read-out: AvgSensIC50; for Ther Window: average IC50 drug-resistant group divided by average IC50 drug-sensitive group. An outline of the steps:
(§2)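 Cells rested 24 h, then exposed 6 days to compound at 10, 2, 0.4, 0.08, 0.016 and 0.0032 μM; counted by imaging on day 0 and day 6. Growth inhibition as ratio of population doublings versus vehicle; IC50 from curve fits, cohort values as geometric means.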

For data set [2], the system named is drug-resistant cell lines of Table 2 (NCI-H1437, OV207, HCC1806, NCI-H2172). The data set is described as follows: Cell Line Growth Retardation Assay, resistant cohort. The class given is cell-based, human. The settings on record: Homo sapiens, […], geometric mean over resistant cohort; 6 days growth; read-out: AvgResIC50. An outline of the steps:
as §2

Data set [3] in a line: Compound Solubility Assay (kinetic solubility). In kind it is physicochemical. As to conditions: kinetic from dmso stock. The procedure: The relative kinetic solubility of each compound was determined at both low (1.2) and neutral (7.4) pH. Compounds were prepared at 10 mM stocks. […] Compounds were allowed to shake at room temperature for 24 hours in 50 mM phosphate buffer pH 7.4, or in SGF buffer pH 1.2 at 37° C. for 24 hours.

Data set [4] is described as follows: Caco-2 Assay (Papp A to B). The settings on record: human, Caco-2, pH 7.4.
Protocol: The degree of bi-directional human intestinal permeability for compounds was estimated using a Caco-2 cell permeability assay. Caco-2 cells were seeded onto polyethylene membranes in 96-well plates. The growth medium was refreshed every 4 to 5 days until cells formed a confluent cell monolayer. HBSS with 10 mM HEPES at pH 7.4 was used as the transport buffer. Compounds were tested at 2 μM bi-directionally in duplicate. Digoxin, nadolol and metoprolol were included as standards. Digoxin was tested at 10 μM bi-directionally in duplicate, while nadolol and metoprolol were tested at 2 μM in the A to B direction in duplicate. The final DMSO concentration was adjusted to less than 1% for all experiments. The plate was incubated for 2 hours in a CO2 incubator at 37° C., with 5% CO2 at saturated humidity. After incubation, all wells were mixed with acetonitrile containing an internal standard, and the plate was centrifuged at 4,000 rpm for 10 minutes. 100 μL supernatant was collected from each well and diluted with 100 μL distilled water for LC/MS/MS analysis. Concentrations of test and control compounds in starting solution, donor solution, and receiver solution were quantified by LC/MS/MS, using peak area ratio of analyte/internal standard. The apparent permeability coefficient Papp (cm/s) was calculated using the equation: Papp=(dCr/dt)×Vr/(A×C0) Where dCr/dt is the cumulative concentration of compound in the receiver chamber as a function of time (μM/s); Vr is the solution volume in the receiver chamber (0.075 mL on the apical side, 0.25 mL on the basolateral side); A is the surface area for the transport, which is 0.0804 cm^2 for the area of the monolayer; C0 is the initial concentration in the donor chamber (μM).
Data set [5] relates to CYP isozymes (IC50s averaged over the isozymes). In words: CYP Enzymatic Inhibition Assay in human liver microsomes. In general terms: Liver microsomes are a subcellular fraction often used to study metabolism.
Protocol: Inhibition of various CYP isozymes was measured for each compound using a CYP enzyme inhibition assay in human liver microsomes (HLM). Compounds and standard inhibitors were prepared at a 100× working solutions. Substrates or PBS were added to the corresponding wells followed by addition of compounds, solvent or positive control working solution to corresponding wells. HLMs were added to the pre-warmed (37° C.) plate and mixed with NADPH cofactor for 10 minutes at 37° C. The reaction was terminated by adding 400 μL cold stop solution (200 ng/mL Tolbutamide and 200 ng/mL Labetalol in ACN). The plate was centrifuged at 4,000 rpm for 20 minutes, and supernatant was transferred to 100 μL HPLC water followed by LC/MS/MS analysis.
A short description of data set [6]: Measurement of Compound Metabolic Stability in hepatocytes.
Protocol: The metabolic stability of compounds was determined in hepatocytes from mice and rats. Compounds were diluted to 5 μM in Williams' Medium E from 10 mM stock solutions. 10 μL of each compound was aliquoted into a well of a 96-well plate and reactions were started by aliquoting 40 μL of a 625,000 cells/mL suspension into each well. The plate was incubated at 37° C. with 5% CO2. At each corresponding time point, the reaction was stopped by quenching with ACN containing internal standards (IS) at a 1:3. Plates were shaken at 500 rpm for 10 min, and then centrifuged at 3,220×g for 20 minutes. Supernatants were transferred to another 96-well plate containing a dilution solution. Supernatants were analyzed by LC/MS/MS. Compound half-life was estimated using the following equation:
Another data set concerns the target hERG potassium channels (Homo sapiens (Human), UniProt Q12809). The data set is described as follows: hERG Inhibition Assay (QPatch automated patch clamp, CHO cells). As to conditions: percent of control current.
The mark [7] stands for this setting: 50 mM phosphate buffer, pH 7.4, aqueous buffer, read-out: KS7.
[8] abbreviates: simulated gastric fluid, kinetic solubility, SGF buffer pH 1.2, 37° C., 24 hours, read-out: KS1.

Chain of CDK6 (Q00534 whole entry): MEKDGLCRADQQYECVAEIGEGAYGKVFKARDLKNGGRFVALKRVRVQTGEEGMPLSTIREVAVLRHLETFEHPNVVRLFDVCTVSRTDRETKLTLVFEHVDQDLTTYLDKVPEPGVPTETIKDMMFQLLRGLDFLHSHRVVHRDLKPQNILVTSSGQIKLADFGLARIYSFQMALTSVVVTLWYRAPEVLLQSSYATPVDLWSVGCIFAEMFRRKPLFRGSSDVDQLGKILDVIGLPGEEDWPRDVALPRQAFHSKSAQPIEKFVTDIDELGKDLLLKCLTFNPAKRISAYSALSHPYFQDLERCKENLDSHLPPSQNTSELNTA
Chain of CDK6 (P24385 whole entry partner): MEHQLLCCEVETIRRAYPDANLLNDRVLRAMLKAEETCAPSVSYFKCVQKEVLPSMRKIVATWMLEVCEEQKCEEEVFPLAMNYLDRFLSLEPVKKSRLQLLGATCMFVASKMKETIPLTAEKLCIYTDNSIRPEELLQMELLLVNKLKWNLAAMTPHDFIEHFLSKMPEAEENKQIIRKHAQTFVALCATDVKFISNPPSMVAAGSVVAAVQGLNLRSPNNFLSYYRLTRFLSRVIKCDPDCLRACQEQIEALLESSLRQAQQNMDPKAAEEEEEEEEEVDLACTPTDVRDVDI
Chain of CDK4 (P11802 whole entry): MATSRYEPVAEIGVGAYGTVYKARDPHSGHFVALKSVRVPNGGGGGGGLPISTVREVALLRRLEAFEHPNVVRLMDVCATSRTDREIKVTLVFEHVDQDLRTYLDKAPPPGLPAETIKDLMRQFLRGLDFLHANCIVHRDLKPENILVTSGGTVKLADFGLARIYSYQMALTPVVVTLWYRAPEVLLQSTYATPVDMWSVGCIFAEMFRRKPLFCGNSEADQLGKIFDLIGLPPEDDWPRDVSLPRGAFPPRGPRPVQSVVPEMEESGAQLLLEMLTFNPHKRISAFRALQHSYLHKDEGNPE
Chain of CDK4 (P24385 whole entry partner): as the sequence (P24385 whole entry partner) above
Chain of hERG potassium channels (Q12809 whole entry): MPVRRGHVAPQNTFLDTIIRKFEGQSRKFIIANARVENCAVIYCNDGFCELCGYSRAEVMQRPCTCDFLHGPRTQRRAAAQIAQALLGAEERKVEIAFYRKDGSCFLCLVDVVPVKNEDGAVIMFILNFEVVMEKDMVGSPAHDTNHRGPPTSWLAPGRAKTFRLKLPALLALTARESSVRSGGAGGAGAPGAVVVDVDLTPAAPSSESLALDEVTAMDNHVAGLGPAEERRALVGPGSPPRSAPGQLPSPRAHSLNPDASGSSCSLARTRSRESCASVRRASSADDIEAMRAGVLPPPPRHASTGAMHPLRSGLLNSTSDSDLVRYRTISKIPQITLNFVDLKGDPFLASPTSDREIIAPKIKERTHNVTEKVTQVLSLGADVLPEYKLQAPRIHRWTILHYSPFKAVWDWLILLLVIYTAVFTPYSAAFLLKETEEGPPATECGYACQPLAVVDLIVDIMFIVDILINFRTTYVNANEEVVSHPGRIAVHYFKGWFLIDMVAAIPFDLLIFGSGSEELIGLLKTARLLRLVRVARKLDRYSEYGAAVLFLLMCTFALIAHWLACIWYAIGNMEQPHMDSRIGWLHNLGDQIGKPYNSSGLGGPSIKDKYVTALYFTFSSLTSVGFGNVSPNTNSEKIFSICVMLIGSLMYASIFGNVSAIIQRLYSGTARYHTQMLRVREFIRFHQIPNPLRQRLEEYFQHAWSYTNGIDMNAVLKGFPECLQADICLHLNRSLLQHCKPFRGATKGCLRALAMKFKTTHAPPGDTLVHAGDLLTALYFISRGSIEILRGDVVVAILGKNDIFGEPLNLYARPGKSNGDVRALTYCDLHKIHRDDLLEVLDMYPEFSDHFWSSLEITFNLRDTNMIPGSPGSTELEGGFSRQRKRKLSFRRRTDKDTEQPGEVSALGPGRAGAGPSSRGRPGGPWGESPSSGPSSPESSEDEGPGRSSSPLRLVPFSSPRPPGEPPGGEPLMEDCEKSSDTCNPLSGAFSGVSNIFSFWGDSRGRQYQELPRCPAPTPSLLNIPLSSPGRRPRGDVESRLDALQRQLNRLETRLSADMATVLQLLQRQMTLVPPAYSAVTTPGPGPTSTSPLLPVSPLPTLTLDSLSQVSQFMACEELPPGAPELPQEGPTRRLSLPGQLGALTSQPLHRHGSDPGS

For orientation: Ki means the dissociation constant of the complex between target and ligand, obtained from inhibition or displacement. High values mean lower affinity, low ones higher affinity. For orientation: Papp A→B means the apparent permeability from the apical to the basolateral side of a cell layer. As a reminder, the half-life is how long it takes for the measured level to halve. A low value points to fast loss. As for `Cc1nc2c(F)cc(-c3nc(Nc4ccc(CN5CCO[C@@](C)(CCO)C5)cn4)ncc3F)cc2n1C(C)C` [Compound A50, (S)-2-(4-((6-((5-fluoro-4-(4-fluoro-1-isopropyl-2-methyl-1H-benzo[d]imidazol-6-yl)pyrimidin-2-yl)amino)pyridin-3-yl)methyl)-2-methylmorpholin-2-yl)ethan-1-ol], the Ki on CDK4 was 0.78 nM; at CDK6 it was 5.32 nM. In addition, the IC50 in data set [1] is 70 nM; in data set [2] it was 730 nM. Besides, in data set [1], the “Ther Window” value came out at 9.87. The solubility kinetic at 24 h in data set [3] (setting [7]) was 1.13 µM (≈ 0.608 µg/mL); in [3] (setting [8]), 200 µM (≈ 108 µg/mL). Moreover, in [4], the Papp A→B at 2 h, 2 μM was 3.25 ×10⁻⁶ cm/s. This compound also had an IC50 at 10 min in data set [5] of 35000 nM. Further, in data set [6], the half-life at 1 μM was 17.5 min. The hERG at hERG potassium channels is recorded as 18.96%.

In the case of `Cc1nc2c(F)cc(-c3nc(Nc4ccc(CN5CCO[C@](C)(CC(=O)N(C)C)C5)cn4)ncc3F)cc2n1C(C)C` [Compound A55, (R)-2-(4-((6-((5-fluoro-4-(4-fluoro-1-isopropyl-2-methyl-1H-benzo[d]imidazol-6-yl)pyrimidin-2-yl)amino)pyridin-3-yl)methyl)-2-methylmorpholin-2-yl)-N,N-dimethylacetamide], the results for the Ki on CDK4 and on CDK6 were 1.6 nM and 11.9 nM, respectively. The IC50 is 210 nM in [1] and 900 nM in [2]. In addition, in [1], the “Ther Window” value is listed as 4.33. For the same compound, the solubility kinetic at 24 h in data set [3] (setting [8]) is 196 µM (≈ 113 µg/mL). In addition, in [4], the apical-to-basolateral permeability (Papp A→B) at 2 h, 2 μM was 0.11 ×10⁻⁶ cm/s. For the same compound, in data set [5], the IC50 at 10 min stood at 20100 nM. Moreover, in data set [6], the half-life at 1 μM is 5.4 min. The compound also returned a hERG at hERG potassium channels of 26.03%.

In the case of `CNC(=O)C[C@]1(C)CN(Cc2ccc(Nc3ncc(F)c(-c4cc(F)c5nc(C)n(C(C)C)c5c4)n3)nc2)CCO1` [Compound A59, (R)-2-(4-((6-((5-fluoro-4-(4-fluoro-1-isopropyl-2-methyl-1H-benzo[d]imidazol-6-yl)pyrimidin-2-yl)amino)pyridin-3-yl)methyl)-2-methylmorpholin-2-yl)-A-methylacetamide], the results for the Ki at CDK4 and at CDK6 were 1.46 nM and 10.1 nM, respectively. In addition, the IC50 came to 210 nM in data set [1] and 1000 nM in [2]. The “Ther Window” value in [1] turned out to be 4.76. The solubility kinetic at 24 h in data set [3] (setting [8]) was 199 µM (≈ 112 µg/mL). In data set [4], this compound showed a Papp A→B at 2 h, 2 μM of 0.7 ×10⁻⁶ cm/s. Further, in data set [5], the IC50 at 10 min was determined as 21200 nM. For the same compound, the half-life at 1 μM in data set [6] was found to be 3.51 min. On hERG potassium channels, this compound displayed a hERG of 25.3%.

Turning to `Cc1nc2c(F)cc(-c3nc(Nc4ccc(CN5CCO[C@](C)(CC(=O)N6CCCC6)C5)cn4)ncc3F)cc2n1C(C)C` [Compound A60, (R)-2-(4-((6-((5-fluoro-4-(4-fluoro-1-isopropyl-2-methyl-1H-benzo[d]imidazol-6-yl)pyrimidin-2-yl)amino)pyridin-3-yl)methyl)-2-methylmorpholin-2-yl)-1-(pyrrolidin-1-yl)ethan-1-one], the inhibition constant Ki is 2.14 nM on CDK4 and 14.5 nM at CDK6. The figures for the IC50 in data set [1] and in data set [2] were 270 nM and 1000 nM, respectively. Besides, in data set [1], the “Ther Window” value turned out to be 3.70. Further, the solubility kinetic at 24 h was 3.12 µM (≈ 1.89 µg/mL) in data set [3] (setting [7]) and 186 µM (≈ 113 µg/mL) in data set [3] (setting [8]). Besides, the Papp A→B at 2 h, 2 μM in [4] came out at 1 ×10⁻⁶ cm/s. This compound also registered an IC50 at 10 min in data set [5] of 18100 nM. In data set [6], this compound showed a half-life at 1 μM of 3.32 min. Also, the hERG at hERG potassium channels is 28%.
